Source: patent publication US10988465B2, “CXCR4 inhibitors and uses thereof” (X4 Pharmaceuticals, Inc., priority 2016, dated 2021)
“And” between values parts separate entries of the source, which are not always exact repeats. Equal entries are not always repeated. Where two headings read alike, the source gives them in different places.

Columns and labels:
[1] = Mouse brain uptake assay (MBUA), 3 mg/kg IV, 0-24 h, 4 time points; format: in vivo, male CD1 mice
Experimental: Example 38: Pharmacokinetics and Brain Penetration Experiment to Determine Brain and Plasma Concentrations of Compounds after IV Administration to Male CD1 Mice
The study design (9 animals) consisted of administrating the drug (IV: 3 mg/kg (5 mL/kg) via tail vein injection) and collecting samples at terminal bleeding for plasma and brain at 0.083, 0.5 and 1 h. The IV dosing solution was prepared in 50 mM citrate buffer (pH 4.0) at 0.6 mg/mL. The blood collection was performed as follows: the animal was restrained manually and approximately 150 μL blood/time point was collected into a dipotassium EDTA tube via retro orbital puncture under anesthesia with isoflurane. The blood sample was put on ice and centrifuged to obtain a plasma sample (2000 g, 5 min under 4° C.) within 15 minutes. The brain collection was performed as follows: a mid-line incision was made in the animal's scalp and the skin was retracted. Using small bone cutters and rongeurs, the skull overlying the brain was removed. The brain was removed using a spatula and the brain rinsed with cold saline. The brain was placed in screw-top tubes, and the tubes were stored at −70° C. until analysis.
An aliquot of 30 μL sample was added to 150 μL MeCN containing 50 ng/mL IS (Dexamethasone). The mixture was vortexed for 5 min and centrifuged at 14,000 rpm for 5 min. An aliquot of 5 μL supernatant was injected for LC-MS/MS analysis.
An aliquot of 30 μL brain homogenate (brain:PBS=1:3, w/v) sample was added to 150 μL IS in MeCN (Dexamethasone, 50 ng/mL). The mixture was vortexed for 5 min and centrifuged at 14,000 rpm for 5 min. An aliquot of 5 μL supernatant was injected for LC-MS/MS analysis.
The sample analysis was performed on LCMS/MS-003 (API4000, triple quadruple) under the following conditions: positive ion, ESI, MRM detection using dexamethasone as internal standard. HPLC conditions: mobile phase A: H2O (0.025% formic acid (FA) with 1 mM NH4OAc); mobile phase B: MeOH (0.025% FA with 1 mM NH4OAc) on Waters X-Bridge C18 (2.1×50 mm, 2.5 μm) column at 60° C.
A similar experiment was performed with 4 time points taken from 0-24 h.

[2] = 7-day mouse toxicology study: toxicokinetics (plasma, brain, CSF), 30 mg/kg/day PO; format: in vivo, male C57BL/6 mice; conditions: for Cmax / Tmax / AUC(0-t) / AUC(0-inf) / half-life: male, C57BL/6, mouse, po
Experimental: The PO dosing solutions were prepared in 50 mM citrate buffer (pH 4.0) at 3 mg/mL. The blood collection was performed as follows: the animal was anesthetized under isoflurane. Approximately 500 μL blood/time point was collected into K2EDTA tube via cardiac puncture for terminal bleeding. ˜200 μL blood samples were put on ice and centrifuged to obtain plasma sample (2000 g, 5 min under 4° C.) within 15 minutes of collection. ˜300 blood samples were used for hematology assay. The brain collection was performed as follow: a mid-line incision was made in the animal's scalp and skin retracted. The skull overlying the brain was removed. The whole brain was collected, rinsed with cold saline, dried on filtrate paper, weighted, and snap frozen by placing into dry ice. The brain sample was homogenized for 2 min with 3 volumes of PBS (pH 7.4) by Mini-bead-beater before sample extraction.
An aliquot of 10 μL sample was added to 200 μL MeCN containing 10 ng/mL IS (Glipizide). The mixture was vortexed for 10 min and centrifuged at 6,000 rpm for 10 min. An aliquot of 1 μL constitution was injected for LC-MS/MS analysis.
An aliquot of 3 μL sample was added to 70 μL MeCN containing 10 ng/mL IS (Glipizide). The mixture was vortexed for 2 min and centrifuged at 14,000 rpm for 5 min. An aliquot of 1 μL constitution was injected for LC-MS/MS analysis.
The sample was homogenized with 3 volumes (v/w) of PBS. An aliquot of 10 μL sample was added to 200 μL MeCN containing 10 ng/mL IS (Glipizide). The mixture was vortexed for 10 min and centrifuged at 6,000 rpm for 10 min. An aliquot of 1 μL constitution was injected for LC-MS/MS analysis.
The sample analysis was performed on LCMSMS-28 (Triple Quad 6500+) under the following conditions: positive ion, ESI, MRM detection using glipizide as internal standard. HPLC conditions: mobile phase A: H2O/0.025% FA with 1 mM NH4OAc, mobile phase B: MeOH/0.025% FA with 1 mM NH4OAc on Waters X-Bridge BEH C18 (2.1×50 mm, 2.5 μm) column at 60° C.

[3] = 7-day toxicology study in mice (clinical observations, body weight, food consumption, necropsy, hematology); format: in vivo, male C57BL/6 mice; conditions: for WBC (10^9/L), Mean: group mean; for WBC (10^9/L), Mean / WBC (10^9/L): day 8, 24 hours after last dose; for WBC (10^9/L): individual animal
Experimental: Example 41: 7-Day Toxicology Study in Mice
Blood samples were taken on day 8, 24 hours after last dose.

[4] = CSF, 30 mg/kg, Day 1, CSF, 30 mg/kg PO
[5] = CSF, 30 mg/kg, Day 7, CSF, 30 mg/kg PO
[6] = brain, 30 mg/kg, Day 1, Brain, 30 mg/kg PO
[7] = brain, 30 mg/kg, Day 7, Brain, 30 mg/kg PO
[8] = plasma, 30 mg/kg, Day 1, Plasma, 30 mg/kg PO
[9] = plasma, 30 mg/kg, Day 7, Plasma, 30 mg/kg PO

Compound: CN1CCN(c2cccc3nc([C@H]4CCC[C@@H](c5ncccc5Cl)N4)[nH]c23)CC1 (racemic) [I-122]
- Kp ([1]; male, CD1, mouse, brain/plasma, iv, 3 mg/kg): 4.17
- clearance ([1]; male, CD1, plasma, mouse, 3 mg/kg IV, 0-24 h, 4 time points): 26.2 mL/min/kg
- half-life ([1]; male, CD1, plasma, mouse, 3 mg/kg IV, 0-24 h, 4 time points, read-out: t½ (converted)): 3.5 h
- AUC(0-t) ([1]; male, CD1, brain, mouse, 3 mg/kg IV, 0-24 h, read-out: AUClast (b)): 7930 ng·h/mL
- AUC(0-t) ([1]; male, CD1, plasma, mouse, 3 mg/kg IV, 0-24 h, read-out: AUClast (P)): 1900 ng·h/mL
- Kp uu ([1]; male, CD1, unbound brain/unbound plasma, mouse, 3 mg/kg IV, 0-24 h): 1.15
- fraction unbound ([1]; mouse, fraction unbound to brain proteins, read-out: Fu (b) %): 0.035
- fraction unbound ([1]; mouse, fraction unbound to plasma proteins, read-out: Fu (p) %): 0.127

Compound: Cc1cccnc1[C@@H]1CCC[C@H](c2nc3cccc(N4CCN(C)CC4)c3[nH]2)N1C (racemic) [I-3, 2-((2R,6S)-1-methyl-6-(3-methylpyridin-2-yl)piperidin-2-yl)-7-(4-methylpiperazin-1-yl)-1H-benzo[d]imidazole]
- AUCCSF/AUCbrain ([2]; Day 1, 30 mg/kg PO): 3.55%
- AUCCSF/AUCbrain ([2]; Day 7, 30 mg/kg PO): 0.325%
- Cmax [2, 4]: 11.3 ng/mL
- Tmax [2, 4]: 8 h
- AUC(0-t) ([2]; CSF, 30 mg/kg, Day 1, CSF, 30 mg/kg PO, read-out: AUClast): 151 ng·h/mL
- Cmax [2, 5]: 6.42 ng/mL
- Tmax [2, 5]: 4 h
- AUC(0-t) ([2]; CSF, 30 mg/kg, Day 7, CSF, 30 mg/kg PO, read-out: AUClast): 35.5 ng·h/mL
- AUC(0-inf) [2, 6]: 8880 ng·h/mL
- Cmax [2, 6]: 219 ng/mL
- Tmax [2, 6]: 4 h
- AUC(0-t) ([2]; brain, 30 mg/kg, Day 1, Brain, 30 mg/kg PO, read-out: AUClast): 4260 ng·h/mL
- half-life ([2]; brain, 30 mg/kg, Day 1, Brain, 30 mg/kg PO, read-out: Terminal t1/2 (converted)): 25 h
- AUC(0-inf) [2, 7]: 29500 ng·h/mL
- Cmax [2, 7]: 615 ng/mL
- Tmax [2, 7]: 1 h
- AUC(0-t) ([2]; brain, 30 mg/kg, Day 7, Brain, 30 mg/kg PO, read-out: AUClast): 10900 ng·h/mL
- half-life ([2]; brain, 30 mg/kg, Day 7, Brain, 30 mg/kg PO, read-out: Terminal t1/2 (converted)): 34.4 h
- AUC(0-t) ([2]; brain, 30 mg/kg, brain, D 1-30 mg/kg, PO, read-out: AUClast (b)): 4260 ng·h/mL
- AUC(0-t) ([2]; brain, 30 mg/kg/day, brain, D 7-30 mg/kg, PO, read-out: AUClast (b)): 10900 ng·h/mL
- half-life ([2]; plasma, 30 mg/kg, 7 days Mouse TOX, D 1-30 mg/kg, PO, read-out: t½ (converted)): 2.62 h
- AUC(0-inf) [2, 8]: 2370 ng·h/mL
- Cmax [2, 8]: 968 ng/mL
- Tmax [2, 8]: 0.5 h
- AUC(0-t) ([2]; plasma, 30 mg/kg, Day 1, Plasma, 30 mg/kg PO, read-out: AUClast): 2370 ng·h/mL
- half-life ([2]; plasma, 30 mg/kg, Day 1, Plasma, 30 mg/kg PO, read-out: Terminal t1/2 (converted)): 2.62 h
- AUC(0-inf) [2, 9]: 3570 ng·h/mL
- Cmax [2, 9]: 1210 ng/mL
- Tmax [2, 9]: 0.5 h
- AUC(0-t) ([2]; plasma, 30 mg/kg, Day 7, Plasma, 30 mg/kg PO, read-out: AUClast): 3560 ng·h/mL
- half-life ([2]; plasma, 30 mg/kg, Day 7, Plasma, 30 mg/kg PO, read-out: Terminal t1/2 (converted)): 3.13 h
- AUC(0-t) ([2]; plasma, 30 mg/kg, plasma, D 1-30 mg/kg, PO, read-out: AUClast (p)): 2370 ng·h/mL
- half-life ([2]; plasma, 30 mg/kg/day, 7 days Mouse TOX, D 7-30 mg/kg, PO, read-out: t½ (converted)): 3.13 h
- AUC(0-t) ([2]; plasma, 30 mg/kg/day, plasma, D 7-30 mg/kg, PO, read-out: AUClast (p)): 3560 ng·h/mL
- WBC (10^9/L), Mean ([3]; Group 2, PO-10 mg/kg): 4.92 10^9/L
- WBC (10^9/L) ([3]; Group 2, PO-10 mg/kg, 10 mg/kg): 3.67 10^9/L and 6.66 10^9/L and 4.44 10^9/L
- WBC (10^9/L), Mean ([3]; Group 3, PO-30 mg/kg): 8.58 10^9/L
- WBC (10^9/L) ([3]; Group 3, PO-30 mg/kg, 30 mg/kg): 11.6 10^9/L and 6.51 10^9/L and 7.69 10^9/L
- WBC (10^9/L), Mean ([3]; Group 4, PO-100 mg/kg): 18.7 10^9/L
- WBC (10^9/L) ([3]; Group 4, PO-100 mg/kg, 100 mg/kg): 20.4 10^9/L
- necropsy finding ([3]; dose of 30 mg/kg P.O., 7 days): One mouse had an enlarged kidney
- white blood cells ([3]; dose of 100 mg/kg P.O., 7 days): sustained increase
- overt toxicity (clinical observations, body weight, food consumption) ([3]; male C57BL/6 mice, 7 days repeat dosing up to 100 mg/kg/day by oral gavage): no overt signs of toxicity
- body weight ([3]; male C57BL/6 mice, 7 days, up to 100 mg/kg/day by oral gavage): remained stable
